One assay addresses T1, Human PI3K beta (Homo sapiens, UniProt P42338).
T1 construct: His (N); host or cells: SF9 insect cells (baculovirus)
The experiment in a line: Human PI3K beta enzyme assay (HTRF). The format is biochemical. As to conditions: read-out: PI3 Kbeta IC50. An excerpt:
(§1) The catalytic subunits of PI3Ks are cloned into either pDEST8(p110 alpha) or pDEST10(p110beta, p110delta, and p110gamma) as N-terminal His tagged fusion proteins using the Gateway system (Invitrogen, catalog#11804-010 for pDEST8 and 11806-015 for pDEST10). The sequences are verified before recombinant protein expression using the Baculovirus Expression System with Gateway® Technology. The accession numbers for the subunits are as follows: • p110 alpha (GB:U79143) • p110beta (GB: S67334) • p110delta (GB: U86453) • p110gamma (GB: X83368) • The regulatory subunits of PI3Ks are cloned into pDEST8 as un-tagged protein using the Gateway system (Catalog#11804-010). The sequences are verified before recombinant protein expression using the Baculovirus Expression System with Gateway® Technology. The accession numbers for the subunits are as following: • p85 alpha (GB: BC030815) • p101(GB: AB028925) • VPS34 (accession number GB:BC033004) is cloned into pDEST20—Thombin as N-terminal GST tagged fusion proteins using the Gateway system (Invitrogen, catalog#11804-013). The sequences are verified before recombinant protein expression using the Baculovirus Expression System with Gateway® Technology.
(§2) For expression of the p110 complexes, the p85 (MOI of 4) is co-infected with p110 alpha, beta, and delta respectively (1MOI) in SF9 cells and harvested at 60 hours post co-infection. P110 gamma was infected at 1 MOI and harvested at 60 hours post infection.
(§3) For purification, PI3Ks are purified by Ni-NTA Agarose (Qiagen #30250) followed by Mono Q 10/100 GL (Ge Healthcare #17-5167-01). VPS34 is purified by Glutathione Sepharose 4 Fast Flow (GE Healthcare #17-5132-03) followed by HiTrap Q (GE Healthcare #17-1153-01).
(§4) 0.5 uL compounds in DMSO are added to wells of a 384 well microtitre plate (Corning 3575). At room temperature: 10 ul PI3K reaction buffer (50 mM Hepes, 5 mM DTT, 150 mM NaCl, 10 mM beta-glycerophosphate, 10 mM MgCl2, 0.25 mM sodium cholate and 0.001% CHAPS, pH 7.00) containing ATP (25 uM, Promega) is added followed immediately by 10 ul PI3K reaction buffer containing di-C8 P1(4,5)P2 (3.5 uM, CellSignals) and PI3Kalpha (0.4875 nM, Millennium Protein Sciences Group) and the mixture is incubated with shaking at room temperature for 30 minutes. Then 5 ul PI3K stop mix (50 mM Hepes, 5 mM DTT, 150 mM NaCl, 0.01% Tween-20, 15 mM EDTA and 25 nM biotin-PI(3,4,5)P3 (Echelon) is added to quench the reaction followed immediately by addition of 5 ul HTRF detection mix (50 mM Hepes, 5 mM DTT, 150 mM NaCl, 0.01% Tween-20, 40 mM KF, 1.0 nM GST:GRP-1 PH domain (Millennium Protein Sciences Group), 15 nM Streptavidin-XL (CisBio) and 0.375 nM anti-GST Eu++ antibody (CisBio) at pH 7.00). The plates are then incubated for 1 hour at room temperature with shaking and then read on a BMG PheraStar Plus reader.
2) Human PI3K beta, delta and gamma isoforms are tested using the procedure described for PI3K alpha above but with the following changes: PI3K beta (5.25 nM), PI3K delta (0.75 nM) and PI3K gamma (5 nM). All isoforms supplied by Millennium Protein Science Group.
(§5) For the assay methods described above, test compound percent inhibition, at various concentrations, is calculated relative to control (DMSO and EDTA) treated samples. Compound concentration versus percent inhibition curves are fitted to generate IC50 values. One skilled in the art will appreciate that the values generated either as percentage inhibition at a single concentration or IC50 values are subject to experimental variation.
On the technique in general: Time-resolved FRET reads energy transfer from a long-lived donor to a nearby acceptor.

For a further assay, the target named is T2, Human PI3K alpha (Homo sapiens, UniProt P42336).
T2 construct: His (N); host or cells: SF9 insect cells (baculovirus)
T2 sequence (P42336 whole entry): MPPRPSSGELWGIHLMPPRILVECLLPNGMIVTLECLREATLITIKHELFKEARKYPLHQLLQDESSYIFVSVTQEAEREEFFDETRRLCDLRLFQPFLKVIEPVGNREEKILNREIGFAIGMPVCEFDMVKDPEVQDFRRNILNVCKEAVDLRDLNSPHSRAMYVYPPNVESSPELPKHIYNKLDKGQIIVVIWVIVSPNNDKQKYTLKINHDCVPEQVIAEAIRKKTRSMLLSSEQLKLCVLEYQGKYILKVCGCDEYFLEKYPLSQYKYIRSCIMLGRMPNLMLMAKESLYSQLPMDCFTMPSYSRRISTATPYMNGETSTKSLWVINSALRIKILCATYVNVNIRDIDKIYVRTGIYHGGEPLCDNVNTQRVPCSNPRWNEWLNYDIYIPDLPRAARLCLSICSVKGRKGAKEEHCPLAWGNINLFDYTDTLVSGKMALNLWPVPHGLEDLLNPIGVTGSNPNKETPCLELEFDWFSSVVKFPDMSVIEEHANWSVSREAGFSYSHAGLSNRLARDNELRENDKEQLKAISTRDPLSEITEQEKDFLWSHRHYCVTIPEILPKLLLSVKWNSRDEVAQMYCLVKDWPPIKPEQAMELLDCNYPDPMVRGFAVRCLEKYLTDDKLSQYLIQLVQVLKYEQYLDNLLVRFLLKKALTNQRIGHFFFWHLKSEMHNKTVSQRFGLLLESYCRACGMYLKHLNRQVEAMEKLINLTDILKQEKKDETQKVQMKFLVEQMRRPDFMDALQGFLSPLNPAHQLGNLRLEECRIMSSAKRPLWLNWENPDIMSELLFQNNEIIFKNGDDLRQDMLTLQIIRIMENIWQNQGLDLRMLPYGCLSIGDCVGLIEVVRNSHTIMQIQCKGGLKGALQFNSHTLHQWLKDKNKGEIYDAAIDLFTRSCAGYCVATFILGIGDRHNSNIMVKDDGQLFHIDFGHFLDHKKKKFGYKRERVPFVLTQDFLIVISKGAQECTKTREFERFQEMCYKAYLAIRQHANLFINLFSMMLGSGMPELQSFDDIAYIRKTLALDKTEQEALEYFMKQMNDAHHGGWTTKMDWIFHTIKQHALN
T2 sequence (P27986 whole entry partner): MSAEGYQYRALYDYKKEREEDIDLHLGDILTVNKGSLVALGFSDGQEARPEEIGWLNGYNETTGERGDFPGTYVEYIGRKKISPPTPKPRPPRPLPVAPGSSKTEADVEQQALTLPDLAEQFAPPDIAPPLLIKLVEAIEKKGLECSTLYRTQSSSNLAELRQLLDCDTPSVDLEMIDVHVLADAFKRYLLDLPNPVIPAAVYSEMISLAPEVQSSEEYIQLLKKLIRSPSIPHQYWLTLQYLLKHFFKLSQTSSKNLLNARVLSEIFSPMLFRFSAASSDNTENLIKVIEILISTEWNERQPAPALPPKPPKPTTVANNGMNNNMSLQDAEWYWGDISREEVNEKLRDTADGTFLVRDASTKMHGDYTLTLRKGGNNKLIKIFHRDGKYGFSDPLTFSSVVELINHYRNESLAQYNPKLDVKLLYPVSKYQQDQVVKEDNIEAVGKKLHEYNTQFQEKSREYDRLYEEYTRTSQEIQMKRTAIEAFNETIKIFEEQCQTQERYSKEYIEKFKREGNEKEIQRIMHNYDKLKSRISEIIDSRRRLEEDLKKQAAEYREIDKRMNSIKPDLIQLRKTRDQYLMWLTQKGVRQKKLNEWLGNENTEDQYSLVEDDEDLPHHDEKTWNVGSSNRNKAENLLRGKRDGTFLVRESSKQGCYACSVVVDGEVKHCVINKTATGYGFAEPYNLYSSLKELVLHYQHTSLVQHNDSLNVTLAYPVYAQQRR
The experiment in a line: Human PI3K alpha enzyme assay (HTRF). The format is biochemical. Conditions: read-out: PI3Kalpha IC50.
Source text: as §1, §2, §3
1) Human PI3K alpha enzyme assay method
as §4, §5

Here are results for 33 compounds from patent US8796268B2, “Heteroaryls and uses thereof” (Millennium Pharmaceuticals, Inc., priority 2010, dated 2014).

T1 sequence (P42338 whole entry): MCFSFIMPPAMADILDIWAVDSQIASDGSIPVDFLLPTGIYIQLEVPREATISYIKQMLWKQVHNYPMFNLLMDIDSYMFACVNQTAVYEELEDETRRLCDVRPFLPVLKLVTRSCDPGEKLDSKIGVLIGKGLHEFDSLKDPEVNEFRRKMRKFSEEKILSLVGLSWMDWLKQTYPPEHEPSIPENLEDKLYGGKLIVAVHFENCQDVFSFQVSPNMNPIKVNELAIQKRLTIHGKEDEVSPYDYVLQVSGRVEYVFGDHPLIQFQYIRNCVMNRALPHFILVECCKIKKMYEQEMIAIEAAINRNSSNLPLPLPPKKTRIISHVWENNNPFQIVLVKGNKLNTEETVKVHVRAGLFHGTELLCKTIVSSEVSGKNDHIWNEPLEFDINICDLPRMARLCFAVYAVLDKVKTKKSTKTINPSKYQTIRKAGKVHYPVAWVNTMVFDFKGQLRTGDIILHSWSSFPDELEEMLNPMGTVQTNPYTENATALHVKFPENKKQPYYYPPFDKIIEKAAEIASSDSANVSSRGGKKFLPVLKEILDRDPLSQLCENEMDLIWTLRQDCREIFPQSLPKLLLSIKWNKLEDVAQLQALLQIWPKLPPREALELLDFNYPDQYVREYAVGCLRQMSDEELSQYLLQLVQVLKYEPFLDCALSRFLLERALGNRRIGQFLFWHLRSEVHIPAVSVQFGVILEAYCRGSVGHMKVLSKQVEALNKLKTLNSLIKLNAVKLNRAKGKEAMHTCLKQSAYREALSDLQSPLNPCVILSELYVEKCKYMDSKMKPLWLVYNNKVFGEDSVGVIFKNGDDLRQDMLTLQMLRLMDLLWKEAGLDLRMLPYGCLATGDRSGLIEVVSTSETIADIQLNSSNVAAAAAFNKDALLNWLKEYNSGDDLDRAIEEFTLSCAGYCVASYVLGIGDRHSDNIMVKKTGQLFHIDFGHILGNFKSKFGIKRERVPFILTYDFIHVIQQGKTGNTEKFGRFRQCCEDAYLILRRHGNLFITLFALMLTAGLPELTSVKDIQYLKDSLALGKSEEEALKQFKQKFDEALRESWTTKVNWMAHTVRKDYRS
T1 sequence (P27986 whole entry partner): as the sequence (P27986 whole entry partner) above

In the case of `Cc1nn2ccc(CNC(=O)c3cnccn3)cc2c1-c1nc(Cc2ccc(Cl)cc2)c(-c2nnc[nH]2)s1` [Compound 50, N-({3-[4-(4-chlorobenzyl)-5-(4H-1,2,4-triazol-3-yl)-1,3-thiazol-2-yl]-2-methylpyrazolo[1,5-a]pyridin-5-yl}methyl)pyrazine-2-carboxamide], the IC50 on Human PI3K beta and on Human PI3K alpha was less than 100 nM in each case.
As for `Clc1ccc(C(c2cc(-c3ccncc3)sc2-c2nnc[nH]2)N2CCC2)cc1` (stereo not drawn) [Compound 51], the results for the IC50 at Human PI3K beta and at Human PI3K alpha were less than 100 nM and greater than 1000 nM, respectively.
`OC(c1ccc(Cl)cc1)c1cc(-c2ccncc2)sc1-c1nnc[nH]1` (stereo not drawn) [Compound 52]: the IC50 (as a rule, the concentration that inhibits the measured activity by half) on Human PI3K beta is less than 100 nM; on Human PI3K alpha, greater than 1000 nM.
As for `Clc1ccc(Cc2nc(-c3ccnc4[nH]ccc34)sc2-c2ncn[nH]2)cc1` [Compound 53], the IC50 on Human PI3K beta and at Human PI3K alpha was 100 to 1000 nM throughout.
Turning to `Cc1nn2ccc(CNCCN)cc2c1-c1nc(Cc2ccc(Cl)cc2)c(-c2nnc[nH]2)s1` [Compound 54], the IC50 at Human PI3K beta and at Human PI3K alpha was 100 to 1000 nM in each case.
For the compound `O[C@@H](c1ccc(Cl)cc1)c1cc(-c2ccnnc2)sc1-c1nnc[nH]1` [Compound 55], the IC50 on Human PI3K beta and at Human PI3K alpha was greater than 1000 nM throughout.
Take `CC(=O)Nc1cc(-c2nc(Cc3ccc(Cl)cc3)c(-c3ncn[nH]3)s2)ccn1` [Compound 56, N-{4-[4-(4-chlorobenzyl)-5-(4H-1,2,4-triazol-3-yl)-1,3-thiazol-2-yl]pyridin-2-yl}acetamide]: the IC50 at Human PI3K beta and at Human PI3K alpha was 100 to 1000 nM in each case.
As for `OC(c1ccc(Cl)cc1)c1cc(-c2ccnc3sccc23)sc1-c1nnc[nH]1` (stereo not drawn) [Compound 57], the IC50 on Human PI3K beta and on Human PI3K alpha was 100 to 1000 nM in each case.
In the case of `CN1CCc2cc(Cl)ccc2C1c1cc(-c2ccncc2)sc1-c1ccn[nH]1` (stereo not drawn) [Compound 58, 6-Chloro-2-methyl-1-[2-(1H-pyrazol-5-yl)-5-pyridin-4-yl-3-thienyl]-1,2,3,4-tetrahydroisoquinoline], the half-maximal inhibitory concentration (IC50) at Human PI3K beta is 100 to 1000 nM; at Human PI3K alpha, greater than 1000 nM.
The like results for `O[C@H](c1ccc(Cl)cc1)c1cc(-c2ccnnc2)sc1-c1nnc[nH]1` [Compound 59] were, in that order, less than 100 nM and greater than 1000 nM.
The like results for `CC(=O)Nc1cc(-c2nc(C(O)c3ccc(Cl)cc3)c(-c3ncc[nH]3)s2)ccn1` (stereo not drawn) [Compound 60, N-{4-[4-[(4-chlorophenyl)(hydroxy)methyl]-5-(1H-imidazol-2-yl)-1,3-thiazol-2-yl]pyridin-2-yl}acetamide] were, in that order, 100 to 1000 nM and greater than 1000 nM.
The like results for `Cc1nn2ccc(CN3CCC(N)CC3)cc2c1-c1nc(Cc2ccc(Cl)cc2)c(-c2nnc[nH]2)s1` [Compound 61] were, in that order, 100 to 1000 nM and 100 to 1000 nM.
For the compound `CNc1cc(-c2cc(C(O)c3ccc(Cl)cc3)c(-c3nnc[nH]3)s2)ccn1` (stereo not drawn) [Compound 62], the figures for the IC50 on Human PI3K beta and on Human PI3K alpha were 100 to 1000 nM and greater than 1000 nM, respectively.
As to `CNc1cc(-c2nc(Cc3ccc(Cl)cc3)c(-c3nnc[nH]3)s2)ccn1` [Compound 63], the IC50 on Human PI3K beta and on Human PI3K alpha was greater than 1000 nM throughout.
Turning to `O=C1CCc2c(-c3cc(C(O)c4ccc(Cl)cc4)c(-c4nnc[nH]4)s3)ccnc2N1` (stereo not drawn) [Compound 64], the IC50 on Human PI3K beta and on Human PI3K alpha was 100 to 1000 nM in each case.
`CN(C)[C@@H](c1ccc(Cl)cc1)c1cc(-c2ccncc2)sc1-c1nnc[nH]1` [Compound 65]: the IC50 on Human PI3K beta was less than 100 nM; at Human PI3K alpha, greater than 1000 nM.
Turning to `Clc1ccc(Cc2nc(-c3ccncc3)sc2-c2cnc[nH]2)cc1` [Compound 66, 4-(4-chlorobenzyl)-5-(1H-imidazol-5-yl)-2-(pyridin-4-yl)thiazole], the IC50 at Human PI3K beta was less than 100 nM; on Human PI3K alpha it was greater than 1000 nM.
For the compound `CC(=O)Nc1cc(-c2nc(Cc3ccccc3Cl)c(-c3ncc[nH]3)s2)ccn1` [Compound 67], the figures for the IC50 at Human PI3K beta and at Human PI3K alpha were greater than 1000 nM and 100 to 1000 nM, respectively.
With `OC(c1ccc(Cl)cc1)c1cc(-c2ncncc2F)sc1-c1nnc[nH]1` (stereo not drawn) [Compound 68], the IC50 at Human PI3K beta is 100 to 1000 nM; at Human PI3K alpha, greater than 1000 nM.
Take `CC(=O)Nc1cc(-c2sc(-c3nnc[nH]3)c(Cc3ccc(Cl)cc3)c2C#N)ccn1` [Compound 71, N-{4-[4-(4-chlorobenzyl)-3-cyano-5-(4H-1,2,4-triazol-3-yl)-2-thienyl]pyridin-2-yl}acetamide]: the IC50 on Human PI3K beta and at Human PI3K alpha was 100 to 1000 nM each time.
`Cc1nn2ccc(CN3CCNCC3)cc2c1-c1nc(Cc2ccc(Cl)cc2)c(-c2nnc[nH]2)s1` [Compound 72, 3-[4-(4-chlorobenzyl)-5-(4H-1,2,4-triazol-3-yl)-1,3-thiazol-2-yl]-2-methyl-5-(piperazin-1-ylmethyl)pyrazolo[1,5-a]pyridine]: the IC50 on Human PI3K beta and on Human PI3K alpha was 100 to 1000 nM in each case.
Consider `CC(=O)Nc1cc(-c2nc(Cc3ccc(Cl)cc3)c(-c3ncc[nH]3)s2)ccn1` [Compound 73], for which the results for the IC50 at Human PI3K beta and on Human PI3K alpha were 100 to 1000 nM and greater than 1000 nM, respectively.
As to `CC(=O)Nc1cc(-c2sc(C(=O)O)c(Cc3ccc(Cl)cc3)c2C#N)ccn1` [Compound 74], the IC50 on Human PI3K beta and at Human PI3K alpha was 100 to 1000 nM each time.
For the compound `Nc1cc(-c2cc(C(O)c3ccc(Cl)cc3)c(-c3nnc[nH]3)s2)ccn1` (stereo not drawn) [Compound 75], the IC50 is less than 100 nM at Human PI3K beta and greater than 1000 nM on Human PI3K alpha.
The like results for `Clc1ccc(Cc2nc(-c3ccncc3)sc2-c2nnc[nH]2)cc1` [Compound 76, 4-(4-chlorobenzyl)-2-(pyridin-4-yl)-5-(4H-1,2,4-triazol-3-yl)thiazole] were, in that order, 100 to 1000 nM and greater than 1000 nM.
As for `O[C@H](c1ccc(Cl)cc1)c1cc(-c2ccncc2)sc1-c1nnc[nH]1` [Compound 77], the IC50 was less than 100 nM at Human PI3K beta and greater than 1000 nM at Human PI3K alpha.
Taken in the same sequence, the figures for `Fc1cnccc1-c1nc(Cc2ccc(Cl)cc2)c(-c2nc[nH]n2)s1` [Compound 78] were greater than 1000 nM and greater than 1000 nM.
Taken in the same sequence, the figures for `OC(c1ccc(Cl)cc1)c1cc(-c2ccnnc2)sc1-c1nnc[nH]1` (stereo not drawn) [Compound 79] were 100 to 1000 nM and greater than 1000 nM.
On to `O=C(O)c1sc(-c2ccncc2)nc1Cc1ccc(Cl)cc1` [Compound 80, 4-(4-chlorobenzyl)-2-(pyridin-4-yl)thiazole-5-carboxylic acid], for which the IC50 was less than 100 nM on Human PI3K beta and greater than 1000 nM on Human PI3K alpha.
The like results for `N#Cc1cc(-c2cc(C(O)c3ccc(Cl)cc3)c(-c3nnc[nH]3)s2)ccn1` (stereo not drawn) [Compound 81, 4-(4-((4-chlorophenyl)(hydroxy)methyl)-5-(4H-1,2,4-triazol-3-yl)thiophen-2-yl)picolinonitrile] were, in that order, less than 100 nM and greater than 1000 nM.
On to `Cc1nn2ccc(CNCCNC(=O)OC(C)(C)C)cc2c1-c1nc(Cc2ccc(Cl)cc2)c(-c2nnc[nH]2)s1` [Compound 82], for which the IC50 on Human PI3K beta and on Human PI3K alpha was 100 to 1000 nM in each case.
Regarding `Cc1nn2ccc(CN(CCN)Cc3ccccc3)cc2c1-c1nc(Cc2ccc(Cl)cc2)c(-c2nnc[nH]2)s1` [Compound 83], the IC50 at Human PI3K beta and at Human PI3K alpha was 100 to 1000 nM each time.
Take `O[C@@H](c1ccc(Cl)cc1)c1cc(-c2ccncc2)sc1-c1nnc[nH]1` [Compound 84]: the IC50 is 100 to 1000 nM on Human PI3K beta and greater than 1000 nM on Human PI3K alpha.
